Columns and labels:
[1] = tested on: subjects with MDD at imminent risk for suicide; conditions: esketamine 84 mg
[2] = tested on: subjects with MDD at imminent risk for suicide; assay: Beck Scale for Suicidal Ideation (BSS), […]2001; assay type: in vivo, human; conditions: esketamine 84 mg; Day 1: 4-hours postdose, Day 2 (DB), or End Point (DB)
Experimental: The BSS is a 21-item self-reported instrument to detect and measure the severity of suicidal ideation in adults and adolescents aged 17 years and older. The BSS total score represents the severity of suicide ideation, and it is calculated by summing the ratings of the first 19 items; the total score ranges from 0 to 38, with a higher score representing greater suicide ideation. Increasing scores reflect increases in suicidal risk.

[3] = tested on: subjects with MDD at imminent risk for suicide; assay: MADRS total score, study […]2001; assay type: in vivo, human; conditions: esketamine 84 mg; baseline to Day 1, 4-hours postdose; ANCOVA
From the text: Primary efficacy variable/Primary Time point: Change from baseline (Day 1, predose) to Day 1, 4-hours postdose in MADRS total score. The MADRS consists of 10 items that cover all of the core depressive symptoms, with each item scoring from 0 (item is not present or is normal) to 6 (severe or continuous presence of the symptom). A higher score represents a more severe condition.
The primary efficacy endpoint is the change in MADRS total score from baseline to Day 1: 4-hours postdose. MADRS total scores range from 0 to 60. […] As this is a phase 2a proof-of-concept study, statistical significance is based on a two-sided alpha level of 0.20. All p-values presented in this document are two-sided.

[4] = tested on: subjects with MDD at imminent risk for suicide; assay: Sustained response, response and remission based on MADRS, […]2001; assay type: in vivo, human; conditions: esketamine 84 mg; at least 50% MADRS reduction from Day 1 4 hours through Day 25
From the text: • a. Changes from baseline to Day 2 and Day 25 for the MADRS total score • b. Changes from baseline to Day 1 4-hours postdose, Day 2 and Day 25 for the MADRS Suicide Item • c. Changes from baseline to Day 1 4-hours postdose, Day 2, and Day 25 for the clinical global judgment of suicide risk from the Suicide Ideation and Behavior Assessment Tool (SIBAT) • d. Sustained response (Onset of Clinical Response) defined as at least 50% reduction from baseline in MADRS total score with onset on Day 1 that is maintained through the end of the double-blind phase (Day 25) • e. Changes from baseline to Day 1 4-hours postdose, Day 2, and Day 25 for the Beck Scale for Suicidal Ideation (BSS) • f. Changes from baseline to Day 1 4-hours postdose and Day 25 for the Beck Hopelessness Scale
Sustained response is defined as at least 50% reduction from baseline in MADRS total score with onset on Day 1: 4 hours postdose that is maintained through the end of the double-blind phase (Day 25). Four subjects in the esketamine 84 mg group and 2 subjects in the placebo group had sustained response throughout the double-blind phase.

## CN[C@]1(c2ccccc2Cl)CCCCC1=O [esketamine, (S)-2-(2-chlorophenyl)-2-(methylamino)cyclohexanone]
[1]
  Subjects who discontinued from the double-blind phase due to (treatment-emergent) adverse events: 5 subjects
[1]; double-blind phase
  Subjects with a serious TEAE: Four
  Subjects with at least one TEAE: 94.3%
  TEAE dissociation: 31.4%
  TEAE dizziness: 34.3%
  TEAE dysgeusia: 31.4%
  TEAE headache: 31.4%
  TEAE nausea: 37.1%
  TEAE vomiting: 20.0%
[1]; follow up phase
  Subjects with a serious adverse event: 1 subjects
  Subjects with at least one adverse event: 48.1%
[2]
  BSS total score change vs placebo: no statistically significant differences
[3]
  MADRS total score, least-square mean difference (SE) from placebo: −5.3 (2.10)
[4]
  Subjects with sustained response throughout the double-blind phase: Four

From patent publication US11707440B2 (priority 2017, dated 2023)
